{
  "source": "patent US10830683B2",
  "about": "“Method for measuring coagulation of blood samples using viscoelastic tests (VET)” (CA Casyso GmbH, priority 2012, dated 2020)",
  "system": "citrated whole blood",
  "test": "ROTEM (NATEM) of recalcified citrated whole blood with added bead suspension or supernatant",
  "assay_type": "cell-based, human",
  "conditions": "cell-coated beads preincubated with TNFα 10 ng/ml for 12-16 h; compared with unstimulated cells",
  "protocol": "To seed endothelial cells on microbeads, an approximate cell count of 400 OEC or HUVEC per bead was mixed with Cytodex 3 (collagen-coated) dextran microcarrier beads (GE Healthcare Bio-Sciences AB, Uppsala, Sweden) in 1 ml of EGM-2 medium. Beads and cells were incubated at 37° C. and 5% CO2 for 4 h and shaken gently every 20 min. After transferring the suspension to a 25-cm^2 tissue culture flask (Greiner Bio-One, Linz, Austria), microbeads were optionally incubated with TNFα (Sigma Aldrich, Vienna) at a final concentration of 10 ng/ml for 12-16 h at 37° C. and 5% CO2 in 4 ml of EGM-2 to simulate an inflammatory situation. To assess the influence of collagen, data from bare, collagen-coated Cytodex 3 were compared with uncoated Cytodex 1 (GE Healthcare Bio-Sciences AB, Uppsala, Sweden) beads in an identical setting.\nCoated Beads and overnight-conditioned cell culture supernatant were gently taken up with a 10 ml serological pipette and transferred to a 15 ml Falcon tube. Once beads descended, the supernatant was carefully transferred to 1.5 ml tubes and centrifuged at 1,500×g for 20 minutes. […]\nThe following ROTEM parameters were calculated from the signal and included in the statistical analysis: Clotting time (CT, sec), latency until the clot reaches a firmness of 2 mm; measure for initial thrombin and fibrin formation. […]",
  "data": [
    {"substance": "TNFα", "values": [
      {"measurement": "Clotting time (CT) after prior activation of cells", "value": "significant further shortening of CT"}
    ]}
  ]
}
